Assay results taken from patent US12221423B1, “3-(3-fluorophenyl)-5-(4-methoxybenzylthio)-4-phenyl-4H-1,2,4-triazole as an antimicrobial compound” (KING FAISAL UNIVERSITY, priority 2023, dated 2025).

How the values were obtained:
Type in all cases: cell-based
Aspergillus flavus = test: Agar plate disc-diffusion, antifungal inhibition zone; details: Sabouraud's dextrose agar, 72 hours
Experimental: (§1) The agar plate disc-diffusion method was applied. […] The discs were then placed onto the surface of agar plates (nutrient agar for bacteria and Sabouraud's dextrose agar for fungi) seeded with the test organism. Each plate contained 15 mL of the agar medium, previously seeded with 0.2 mL of the broth culture of each organism pregrown for 18 hours. The plates were incubated at 37° C. for 48 hours, and 72 hours for fungi. The inhibition zones were measured in mm. Discs impregnated with DMSO were used as a control, and its inhibition zone was subtracted from the tested compound actual inhibition zone.

[1] = tested on: Chrysosporium keratinophilum; test: as above; details: Sabouraud's dextrose agar, 72 hours
Experimental: as §1

Escherichia coli = test: Agar plate disc-diffusion, antibacterial inhibition zone; details: Escherichia coli (Gram negative), nutrient agar, 37° C., 48 hours
Experimental: as §1

Pseudomonas aeruginosa = test: as above; details: Pseudomonas aeruginosa (Gram negative), nutrient agar, 37° C., 48 hours
Experimental: as §1

Bacillus Cereus = test: as above; details: Bacillus Cereus (Gram positive), nutrient agar, 37° C., 48 hours
Experimental: as §1

Staphylococcus aureus = test: as above; details: Staphylococcus aureus (Gram positive), nutrient agar, 37° C., 48 hours
Experimental: as §1

[2] = A = concentration of comp. = 10,000 μL
[3] = B = concentration of comp. = 30,000 μL
[4] = C = concentration of comp. = 50,000 μL

`COc1ccc(CSc2nnc(-c3cccc(F)c3)n2-c2ccccc2)cc1` [III, 3-(3-fluorophenyl)-5-(4-methoxybenzylthio)-4-phenyl-4H-1,2,4-triazole] gave an inhibition zone (Aspergillus flavus; [2]) of 19 mm, an inhibition zone (Aspergillus flavus; [3]) of 22 mm and an inhibition zone (Aspergillus flavus; [4]) of 31 mm. It also gave an inhibition zone [1, 2] of 26 mm, an inhibition zone [1, 3] of 28 mm and an inhibition zone [1, 4] of 42 mm. For the same molecule, the inhibition zone (Escherichia coli; [2]) was 27 mm, the inhibition zone (Escherichia coli; [3]) was 35 mm and the inhibition zone (Escherichia coli; [4]) was 48 mm. The inhibition zone (Pseudomonas aeruginosa; [2]) was 22 mm, the inhibition zone (Pseudomonas aeruginosa; [3]) was 25 mm and the inhibition zone (Pseudomonas aeruginosa; [4]) was 36 mm. It also gave an inhibition zone (Bacillus Cereus; [2]) of 24 mm, an inhibition zone (Bacillus Cereus; [3]) of 27 mm and an inhibition zone (Bacillus Cereus; [4]) of 40 mm. It also gave an inhibition zone (Staphylococcus aureus; [2]) of 16 mm, an inhibition zone (Staphylococcus aureus; [3]) of 22 mm and an inhibition zone (Staphylococcus aureus; C = concentration of comp.) of 34 mm.
